Data taken from the NIST ThermoML archive (doi:10.1016/j.jct.2019.06.022).

Assay: mn = molality of the nth substance listed, in mol/kg
Settings: 298.15 K, 101.3 kPa, Liquid; for binary diffusion coefficient: Taylor dispersion method; for mass density: Vibrating tube method

O=C([O-])c1ccccc1O.[Na+] [sodium salicylate] + O
Settings	binary diffusion coefficient [m2/s]	mass density [kg/m3]
m1 = 0.001004	1.06e-09	996.965
m1 = 0.002502	1.05e-09	997.145
m1 = 0.005026	1.04e-09	997.318
m1 = 0.007532	1.02e-09	997.434
m1 = 0.01004	1.02e-09	997.909
m1 = 0.05045	–	999.801
m1 = 0.1014	–	1003.01
